Experimental data: US5624923A, “Tricyclic diazepine vasopressin antagonists and oxytocin antagonists” (priority 1995, dated 1997)

What was measured:
[1] = target: T1, Human V2 Vasopressin Receptor (Homo sapiens, UniProt P30518); assay: Binding to Membranes of Mouse Fibroblast Cell Line (LV-2) Transfected with the cDNA Expressing the Human V2 Vasopressin Receptor; conditions: LV-2 cell membranes, human V2; read-out: V2 IC50 (**)
T1 construct: expressed in transfected cells; host or cells: mouse fibroblast cell line LV-2
T1 sequence (P30518 whole entry): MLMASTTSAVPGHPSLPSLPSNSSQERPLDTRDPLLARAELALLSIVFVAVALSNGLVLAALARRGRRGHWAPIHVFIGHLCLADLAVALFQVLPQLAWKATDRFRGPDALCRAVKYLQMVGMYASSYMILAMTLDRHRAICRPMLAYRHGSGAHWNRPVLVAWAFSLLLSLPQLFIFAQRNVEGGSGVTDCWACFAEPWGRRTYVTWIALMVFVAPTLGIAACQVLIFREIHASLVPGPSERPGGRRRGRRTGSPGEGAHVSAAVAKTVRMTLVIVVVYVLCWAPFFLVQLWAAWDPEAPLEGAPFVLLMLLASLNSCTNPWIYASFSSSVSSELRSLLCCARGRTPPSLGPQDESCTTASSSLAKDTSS
Description: Binding to Membranes of Mouse Fibroblast Cell Line (LV-2) Transfected with the cDNA Expressing the Human V2 Vasopressin Receptor
Flasks of 175 ml capacity, containing attached cells grown to confluence, are cleared of culture medium by aspiration. The flasks containing the attached cells are rinsed with 2×5 ml of phosphate buffered saline (PBS) and the liquid aspirated off each time. Finally, 5 ml of an enzyme free dissociation Hank's based solution (Specialty Media, Inc., Lafayette, N.J.) is added and the flasks are left undisturbed for 2 min. The content of all flasks is. poured into a centrifuge tube and the cells pelleted at 300× g for 15 min. The Hank's based solution is aspirated off and the cells homogenized with a polytron at setting #6 for 10 sec in 10.0 mM Tris.HCl buffer, pH 7.4 containing 0.25M sucrose and 1.0 mM EDTA. The homogenate is centrifuged at 1500× g for 10 min to remove ghost membranes. The supernatant fluid is centrifuged at 100,000× g for 60 min. to pellet the receptor protein. Upon completion, the pellet is resuspended in a small volume of 50.0 mM Tris. HCl buffer, pH 7.4. The protein content is determined by the Lowry method and the receptor membranes are suspended in 50.0 mM Tris.HCl buffer containing 0.1 mM phenylmethylsulfonylfluoride (PMSF) and 0.2% bovine serum albumin (BSA) to give 2.5 mg receptor protein per ml of suspension.
Arginine^8, vasopressin (S.A. 75.0 Ci/mmole) at 0.8 nM and the reaction initiated by the addition of 80.0 μl of tissue membranes (200.0 μg tissue protein). The plates are left undisturbed on the bench top for 120 min to reach equilibrium. Non specific binding is assessed in the presence of 1.0 μM of unlabeled ligand, added in 20 μl volume. For test compounds, these are solubilized in 50% dimethylsulfoxide (DMSO) and added in 20.0 μl volume to a final incubation volume of 200 μl. Upon completion of binding, the content of each well is filtered off, using a Brandel® cell Harvester (Gaithersburg, Md.). The radioactivity trapped on the filter disk by the ligand-receptor complex is assessed by liquid scintillation counting in a Packard LS Counter, with an efficiency of 65% for tritium. The data are analyzed for IC50 values by the LUNDON-2 program for competition (LUNDON SOFTWARE, Ohio).

[2] = target: T2, oxytocin receptors (Rattus norvegicus, UniProt P70536); assay: Oxytocin Receptor Binding; conditions: for IC50: 1.0 nM [3H]oxytocin; for inhibition at 10 µM / inhibition at 1.25 µM: [3H]oxytocin
T2 construct: The uteri are dissected out, cleaned of fat and connective tissues; from tissue; host or cells: uterus of DES-treated female Sprague-Dawley rats
T2 sequence (P70536 1-388): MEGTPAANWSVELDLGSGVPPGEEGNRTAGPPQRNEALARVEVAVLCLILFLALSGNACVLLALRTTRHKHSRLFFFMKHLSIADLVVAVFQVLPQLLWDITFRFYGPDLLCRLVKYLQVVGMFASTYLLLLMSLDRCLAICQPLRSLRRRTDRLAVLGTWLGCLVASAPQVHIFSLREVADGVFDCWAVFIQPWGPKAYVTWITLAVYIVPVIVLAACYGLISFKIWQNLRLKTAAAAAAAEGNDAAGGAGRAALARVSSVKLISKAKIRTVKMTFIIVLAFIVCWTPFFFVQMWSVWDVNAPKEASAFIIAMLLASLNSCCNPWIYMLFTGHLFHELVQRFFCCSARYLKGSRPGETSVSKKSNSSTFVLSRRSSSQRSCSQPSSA
Method in brief: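 Membranes from uteri of DES-primed (0.3 mg/kg i.m., 18 h) female Sprague-Dawley rats. Competition with 1.0 nM [3H]oxytocin in 50 mM Tris.HCl pH 7.4, 5 mM MgCl2 with protease inhibitors, 60 min at 22 °C, filtration read-out. Non-specific binding with 1.0 uM unlabeled OT; IC50 calculated.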

Structure (SMILES) | IC50 [1] [µM] | IC50 [2] [µM] | inhibition at 10 µM [2] [%] | inhibition at 1.25 µM [2] [%]
O=C(Nc1ccc(C(=O)N2Cc3ccnn3Cc3ccccc32)cc1)c1ccc(Cl)cc1Cl [Example 217, N-[4-(4H-Pyrazolo[5,1-c][1,4]benzo-diazepin-5(10H)-ylcarbonyl)phenyl]-2,4-dichlorobenzamide] | 0.01 | 1.2 | 87 | 
O=C(Nc1ccc(C(=O)N2Cc3cccn3Cc3sccc32)cc1)c1ccc(Cl)cc1Cl [Example 274, N-(4-(5H-pyrrolo[1,2-a]thieno-[3,2-e][1,4]diazepin-4(10H)-ylcarbonyl)phenyl]-2,4-dichloro-benzamide] | 0.031 | 1 | 95 | 
O=C(Nc1ccc(C(=O)N2Cc3cccn3Cc3ccccc32)cc1)c1cc([N+](=O)[O-])ccc1Cl [Example 480, N-[4-(5H-pyrrolo[2,1-c][1,4]benzodiazepin-10(11H)-ylcarbonyl)phenyl]-2-chloro-5-nitrobenzamide] | 0.026 | 0.15 | 98 | 
O=C(Nc1ccc(C(=O)N2Cc3cccn3Cc3ccccc32)c(Cl)c1)c1ccc(F)cc1Cl [Example 527, N-[4-(5H-pyrrolo[2,1-c][1,4]benzodiazepin-10(11H)-ylcarbonyl]-3-chlorophenyl]-4-fluoro-2-chlorobenzamide] | 0.00067 | 0.45 | 92 | 
O=C(Nc1ccc(C(=O)N2Cc3cccn3Cc3ccccc32)c(Cl)c1)c1ccccc1C(F)(F)F [Example 528, N-[4-(5H-pyrrolo[2,1-c][1,4]benzodiazepin-10(11H)-ylcarbonyl]-3-chlorophenyl]-2-(trifluoromethyl)benzamide] | 0.006 | 1.17 | 90 | 

Now from value to compound:

IC50 [1] [µM] | IC50 [2] [µM] | inhibition at 10 µM [2] [%] | inhibition at 1.25 µM [2] [%] | Structure (SMILES)
0.0032 | 0.029 |  | 97 | COc1cc(C(=O)N2Cc3cccn3Cc3ccccc32)ccc1NC(=O)c1ccccc1C [Example 477, N-[4-(5H-pyrrolo[2,1-c][1,4]benzodiazepin-10(11H)-ylcarbonyl)-2-methoxy-phenyl]-2-methylbenzamide]
0.0019 | 0.04 |  | 97 | COc1cc(C(=O)N2Cc3cccn3Cc3ccccc32)ccc1NC(=O)c1ccc(Cl)cc1Cl [Example 478, N-[4-(5H-pyrrolo[2,1-c][1,4]benzodiazepin-10(11H)-ylcarbonyl)-2-methoxy-phenyl]-2,4-dichlorobenzamide]
0.00042 | 0.28 | 98 |  | Cc1cccc(C(=O)Nc2ccc(C(=O)N3Cc4cccn4Cc4ccccc43)c(Cl)c2)c1C [Example 525, N-[4-(5H-pyrrolo[2,1-c][1,4]benzodiazepin-10(11H)-ylcarbonyl]-3-chlorophenyl]-2,3-dimethylbenzamide]
